From patent US12503453B2, “USP7 inhibition” (Dana-Farber Cancer Institute, Inc., priority 2018, dated 2025)
Like-named read-outs stand apart in the source and are kept apart here.

Assays:
[1] = molecular target: USP7 (Homo sapiens (Human), UniProt Q93009); assay: Competitive ABPP with HA-Ub-VS in MCF7 crude cell extracts; assay type: binding; details: read-out: IC50 of inhibition of HA-Ub-VS labeling
Description: HA-Ub-VS experiments were performed as previously described in Lamberto, I. et al. Structure-Guided Development of a Potent and […] Selective Non-covalent Active-Site Inhibitor of USP7. Cell Chem. Biol. 24, 1490-1500 (2017). Briefly, target engagement lysis buffer (50 mM Tris pH 8.0, 150 mM NaCl, 5 mM MgCl2, 0.5 mM EDTA, 0.5% NP-40, 10% glycerol, 1 mM TCEP, protease and phosphatase inhibitors) was added to cell pellets on ice. Lysate was cleared by centrifugation and diluted to 1.67 mg/mL. Where indicated, 30 μL lysate was then incubated with inhibitors or DMSO for the indicated timepoints. 1 μM HA-Ub-VS was then added to the lysate and incubated at RT for the indicated time points. Labeling reactions were quenched with 4×LDS sample buffer (Thermo Fisher B0007) supplemented with 10% BME, vortexed vigorously, and heated to 95° C. for 5 minutes. Samples were resolved by SDS-PAGE and analyzed by Western blot with the indicated antibodies.

[2] = test system: Ewing sarcoma cell lines, TP53 WT and mutant; assay: Cell proliferation (CellTiter-Glo), panel of Ewing sarcoma cell lines; assay type: cell-based; details: WT and TP53-KO Ewing Sarcoma cells
Description: (§1) Cells were plated in 384-well culture-treated plates and allowed to settle overnight. After drug treatment and appropriate incubation time, cell viability was assessed using the CellTiter-Glo Luminescent Cell Viability Assay (Promega). Luminescence was read on a Fluostar Omega Reader (BMG Labtech).

[3] = test system: TC32 cells; assay: Cell proliferation (CellTiter-Glo), TC32; assay type: cell-based; details: TP53 wild-type, 3 days
Description: as §1

[4] = test system: MCF7 cells; assay: Transcriptome profiling, 3' Digital Gene Expression RNA-seq; assay type: cell-based; details: 24 hours, low or high doses
Source text: Overall, transcripts were detected for 7000-10,000 genes (7276 genes detected across all conditions).
The same report had also identified a set of dimerization partner, Retinoblastoma-like, E2F and multi-vulval class B (DREAM) complex target genes by combining p53 repression data (generated in part with Nutlin-3A-treated MCF7 cells) with cell cycle expression and DREAM component binding.

[5] = molecular target: USP7-Q351S (Homo sapiens (Human), UniProt Q93009, Q351S); assay: Ub-AMC assay with mutant USP7-Q351S; assay type: biochemical; details: 6-hr pre-incubation
USP7-Q351S, sequence (Q93009 whole entry Q351S): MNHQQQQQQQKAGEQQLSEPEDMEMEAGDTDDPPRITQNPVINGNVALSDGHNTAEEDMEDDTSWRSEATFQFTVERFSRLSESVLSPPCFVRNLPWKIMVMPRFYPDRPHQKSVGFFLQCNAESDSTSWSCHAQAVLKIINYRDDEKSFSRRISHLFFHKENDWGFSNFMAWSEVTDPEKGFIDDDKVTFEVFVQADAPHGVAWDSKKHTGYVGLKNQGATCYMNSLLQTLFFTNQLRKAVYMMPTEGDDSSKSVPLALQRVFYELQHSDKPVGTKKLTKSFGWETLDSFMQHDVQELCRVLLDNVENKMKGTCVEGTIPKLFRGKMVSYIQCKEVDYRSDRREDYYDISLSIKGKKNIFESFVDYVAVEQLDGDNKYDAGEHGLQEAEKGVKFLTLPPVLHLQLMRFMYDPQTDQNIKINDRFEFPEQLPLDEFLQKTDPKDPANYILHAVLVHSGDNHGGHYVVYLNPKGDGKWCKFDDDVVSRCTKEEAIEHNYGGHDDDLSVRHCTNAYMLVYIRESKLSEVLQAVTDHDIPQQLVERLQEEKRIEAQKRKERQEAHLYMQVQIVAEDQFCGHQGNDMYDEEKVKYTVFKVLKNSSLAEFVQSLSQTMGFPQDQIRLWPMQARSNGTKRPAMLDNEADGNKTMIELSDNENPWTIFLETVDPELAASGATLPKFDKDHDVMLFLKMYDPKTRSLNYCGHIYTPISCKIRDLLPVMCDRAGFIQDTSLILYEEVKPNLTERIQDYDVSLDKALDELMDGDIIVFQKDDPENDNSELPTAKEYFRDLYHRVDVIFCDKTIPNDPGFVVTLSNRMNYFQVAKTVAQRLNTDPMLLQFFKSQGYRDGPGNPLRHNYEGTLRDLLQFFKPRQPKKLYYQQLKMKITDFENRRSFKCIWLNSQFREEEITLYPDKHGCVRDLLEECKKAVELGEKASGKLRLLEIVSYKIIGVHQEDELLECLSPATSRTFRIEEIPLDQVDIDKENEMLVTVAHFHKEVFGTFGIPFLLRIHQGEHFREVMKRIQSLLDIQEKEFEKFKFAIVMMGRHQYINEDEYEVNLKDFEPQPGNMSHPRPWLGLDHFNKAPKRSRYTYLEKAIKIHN
Description: Full length USP7 was tested for its activity in Ubiquitin-AMC assay in presence or absence of inhibitors. USP7 (5 nM) was pre-incubated for 6 hours at room temperature with different concentrations of inhibitors or DMSO as a control in 50 mM HEPES pH 7.5, 0.5 mM EDTA, 11 μM ovalbumin, and 5 mM DTT. Ubiquitin-AMC (Boston Biochem) was then added to a final concentration of 500 nM. The initial rate of the reaction was measured by collecting fluorescence data at one minute intervals over 30-minute period using a Clariostar fluorescence plate reader at excitation and emission wavelength of 345 and 445 nm respectively. The calculated initial rate values were plotted against inhibitor concentrations to determine IC50s. All the experimental data were plotted using Prism GraphPad. All assays for each compound were performed at least twice for each compound.

[6] = molecular target: HEK293 proteome (USP7) (Homo sapiens (Human), UniProt Q93009); assay: Compound 6-DTB proteome-wide profiling; assay type: binding; details: HEK293 cell lysates, 5 hours, 1 μM or 10 μM
HEK293 proteome (USP7), sequence (Q93009 whole entry): as the sequence (Q93009 whole entry Q351S) above, with S351Q counted along it
Description: HEK 293AD cells were lysed as described above, and the lysate was cleared by centrifugation. […] SDS was added to a final concentration of 1.2% (27.2 μL of a 10% stock), and denatured by heating to 80° C. for 5 minutes. After cooling to RT, 1125 μL 1×PBS was added to dilute the final SDS concentration to 0.2%. 50 μL streptavidin agarose slurry was added to each sample, followed by incubation at RT for 3 hours. After streptavidin enrichment, samples were washed vigorously (2×0.2% SDS, 3×PBS, 3×ddH2O). After the final wash, all supernatant was removed using a flat-bottom tip, and the resin was flash frozen and stored at −80° C. until workup for TMT labeling.
Streptavidin beads were resuspended in 95 μL 100 mM Tris pH 8.0. Each sample was denatured with 0.1% rapigest, reduced (10 mM dithiothreitol), alkylated (22.5 mM iodoacetamide), and digested with trypsin overnight at 37° C. […] Eluted peptides were then analyzed by nanoLC-MS as described (Ficarro, S. B. et al. Improved electrospray ionization efficiency compensates for diminished chromatographic resolution and enables proteomics analysis of tyrosine signaling in embryonic stem cells. Anal. Chem. 81, 3440-3447 (2009)) with a NanoAcquity UPLC system (Waters, Milford, MA) interfaced to a QExactive HF mass spectrometer (Thermofisher Scientific, San Jose, CA). […]

[7] = test system: A673 cells; assay: Cell proliferation (CellTiter-Glo), A673; assay type: cell-based; details: TP53-mutant, 3 days
Description: as §1

[8] = test system: TC71 cells; assay: Cell proliferation (CellTiter-Glo), TC71; assay type: cell-based; details: TP53-mutant, 3 days
Description: as §1

USP7, sequence (Q93009 whole entry): as the sequence (Q93009 whole entry Q351S) above, with S351Q counted along it

CN1CCN(CCC(=O)Nc2ccc3c(=O)n(CC4(O)CCN(C(=O)[C@@H](CCCNC(=O)c5ccc6c(Cl)c7c(nc6c5)CCCC7)Cc5ccccc5)CC4)cnc3c2)CC1 [compound 6, (S)—N-(4-benzyl-5-(4-hydroxy-4-((7-(3-(4-methylpiperazin-1-yl)propanamido)-4-oxoquinazolin-3(4H)-yl)methyl)piperidin-1-yl)-5-oxopentyl)-9-chloro-5,6,7,8-tetrahydroacridine-3-carboxamide]
IC50 ([1]; 30 min preincubation): 85 nM
IC50 ([1]; 4 hr preincubation): 8 nM
TP53 dependence of cell killing [2]: highly TP53-dependent cell killing
growth inhibition [3]: potently inhibited
transcriptional profile [4]: strongly correlated transcriptional profiles
loss in potency compared to wild-type enzyme [5]: 100 fold
inhibition of compound 6-DTB labeling of USP7 (only protein of 566) [6]: > 3 fold
growth inhibition [7]: neither TP53-mutant A673 or TC71 was substantially inhibited
growth inhibition [8]: neither TP53-mutant A673 or TC71 was substantially inhibited
